The values that follow come from patent US10351594B2, “Process for preparing compounds having triple activities of thrombolysis, antithrombosis, and radical scavenging” (Shanghai Lumosa Therapeutics Co., Ltd., priority 2013, dated 2019).

For assay [1], the system named is formation of thrombus (rat arteriovenous bypass). Description: Antithrombotic activity via intravenous administration, rat arteriovenous bypass cannula with thread. It counts as in vivo, male SD rats. The conditions noted are these: n = 10. An excerpt:
A cannula was composed of 3 segments. The middle segment has a length of 80 mm and an inner diameter of 3.5 mm. […] The pre-weighed, 60 mm in length thread was placed in the middle segment of the polyethylene tube. Both ends of the wider tube sheathed the un-narrowed ends of two polyethylene tubes respectively (0.5 mm of the thread was restrained by one of the segment to fix the thread). The cannula was filled with a heparin solution in normal saline (50 IU/kg) through the tip end by using an injector and was ready for use. 200-220 g male SD rats were anesthetized with 20% urethane solution (6 mL/kg, ip). Anesthetized rats were fixed in a supine position, and the left external jugular vein was separated and penetrated with a suture at the proximal and distal ends respectively, and the distal end was ligated. An incision was carefully made on the exposed left external jugular vein, and the tip end without thread-restraining of the bypass cannula prepared as described above was inserted into the proximal end of the open incision in the left external jugular vein. A precise amount of heparin in normal saline (50 IU/kg) was injected through the tip at the other end by using an injector. Then, the injector was replaced, and precise amount of drug was injected by the same way. At this moment, without removing the injector from the ethylene tube, the right common carotid artery was separated, and the proximal end was clipped by an artery clip. The right common carotid artery was penetrated with a suture at the proximal and distal ends respectively, and the distal end was ligated. An incision was carefully cut across the right common carotid artery near the artery clip. The injector was pulled out of the polyethylene tube through the tip, and the tip of the polyethylene tube was then inserted into the proximal end of the artery incision. Both ends of the bypass cannula were fixed to the artery or vein with #4 sutures. The artery clip was then removed to allow blood to flow from the artery to the vein through the bypass cannula. A rat arteriovenous bypass thrombolysis model was thus established. The process was timed from the beginning of circulation, the thread attached with thrombus was taken out from the bypass cannula after 15 minutes and accurately weighed. The difference in the mass of the thread before and after was determined as the wet weight of the thrombus, which was statistically analyzed and used to evaluate the in vivo antithrombotic activities of the compounds. The wet weight of the thrombus was expressed as average value and standard deviation (x±SD). The drug administration method is intravenous injection. The blank control was normal saline solution, and the dose was 1 mL/kg. The positive control was aspirin, and the dose was 9 mg/kg. The dose of compounds 5Aa-p of the present invention was 0.1 nmol/kg. The method was the same as in example 3. The drug administration method is intravenous injection. The blank control was normal saline solution, and the dose was 3 mL/kg. The positive control was aspirin, and the dose was 9 mg/kg.

The subject of assay [2] is thrombus (rat arteriovenous bypass thrombolysis model). Description: Thrombolytic activity via intravenous administration, rat arteriovenous bypass thrombolysis model. It counts as in vivo, male SD rats. The following applies: n = 10. The method, then:
200-220 g male SD rats were anesthetized with 20% urethane solution (6 mL/kg, ip). Anesthetized rats were fixed in a supine position, and the right common carotid artery was separated, clamped at the proximal end with an arterial clip, and penetrated with a suture at the proximal and distal ends, respectively. The suture at the distal end is clipped tightly by a hemostatic clamp at the skin/fur. Cannulation was performed at the distal end, the arterial clamp was loosened, and about 1 ml arterial blood was discharged into a 1 mL EP vial. 0.1 mL rat arterial blood was injected into a vertically fixed glass tube (15 mm in length, with an inner diameter of 2.5 mm and an outer diameter of 5.0 mm, sealed with a rubber stopper at the bottom), into which was immediately inserted a thrombus immobilization screw made of stainless steel. […] 40 min after the blood coagulated, the rubber stopper at the bottom of the glass tube was removed, the stem of the thrombus immobilization screw was fixed by forceps, and the thrombus-wrapped thrombus immobilization screw was carefully taken out from the glass tube and precisely weighted.
A bypass cannula was composed of 3 segments. The middle segment was a polyethylene tube having a length of 60 mm and an inner diameter of 3.5 mm. The segments on both ends were similar polyethylene tubes having a length of 100 mm, an inner diameter of 1 mm and an outer diameter of 2 mm, one end of which was pulled to form a tip, with an outer diameter of 1.0 mm (used in inserting into the rat carotid artery or vein), the other end of which was sheathed by a polyethylene tube having a length of 7 mm and an outer diameter of 3.5 mm (thickened, used in inserting into the polyethylene tube of the middle segment). The inner wall of the 3-segment cannula was entirely silylated. The thrombus-wrapped thrombus immobilization screw was placed into the polyethylene tube of the middle segment, and both ends of the tube sheath the thickened ends of two polyethylene tubes. The cannula was filled with a heparin solution in normal saline (50 IU/kg) through the tip end by using an injector and was ready for use.
The left external jugular vein of the rat was separated and penetrated with a suture at the proximal and distal ends respectively, and the distal end was ligated. An incision was carefully made on the exposed left external jugular vein, and the tip of the bypass cannula prepared as described above was inserted into the proximal end of the incision in the left external jugular vein, away from the stem of the thrombus immobilization screw in the middle segment of the bypass cannula (which accommodated the accurately weighed thrombus immobilization screw). A precise amount of heparin in saline (50 IU/kg) was injected through the tip at the other end by using an injector. At this moment, without removing the injector from the polyethylene tube, the tube between the injector and the polyethylene tube was clamped with a hemostatic clamp. The blood flow was stopped by clamping the proximal end of the right common carotid artery with an arterial clip, and an incision was cut carefully across the common carotid artery near the clip. The injector was pulled out of the polyethylene tube through the tip, and the tip of the polyethylene tube was then inserted into the proximal end of the artery incision. Both ends of the bypass cannula were fixed to the artery or vein with #4 sutures.
A scalp needle was used to pass saline solution, a urokinase in saline solution or varied concentrations of the compounds in saline solution through the middle section of the bypass cannula (which accommodated the accurately weighed thrombus immobilization screw) to a position at the proximal vein and away from the thrombus immobilization screw. The artery clip was then removed to allow blood to flow from the artery to the vein through the bypass cannula. A rat arteriovenous bypass thrombolysis model was thus established. […]

In a further assay the test system is stroke rats. Kind of assay: Therapeutic effect in stroke rats (microthrombus injected into the brain, treated at once): Zealonga score and TTC infarction volume. It counts as in vivo, SD male rats. The conditions noted are these: for Neural function scores: Zealonga method, 24 hours after awake, n = 9; for Percentage of infarction volume: cerebral infarction, TTC, n = 7. The method, then:
SD male rats (280-300 g) were randomly divided to UK positive control group at a dose of 20000 IU/kg, blank control group with normal saline solution, compound control group with PAK at a dose of 5 μmol/kg, and compound 5Ak group at a dose of 1 μmol/kg (high), 0.1 μmol/kg (medium), and 0.01 μmol/kg (low). A 10% chloral hydrate solution (400 mg/kg) was injected intraperitoneally into rats for anesthesia. […] The 10 μl blood drawn was placed in a 1 mL EP vial and kept at RT for 30 min to allow the coagulation of blood and then transferred into a −20° C. refrigerator for 1 hour to allow the formation of solid coagulation. 1 hour later, the blood clots were taken out, 1 mL normal saline was added therein, and then the blood clots were broken into relatively uniform microthrombus by a steel spatula. The microthrombus suspension was then transferred into a 1 mL injector for use. […] The common jugular vein was separated, and then injected with UK at the dose of 20000 IU/kg, normal saline solution, or compound 5Ak at the dose of 1 μmol/kg. The vein was ligated. 3 drops of penicillin was dropped on the wound. The wound was sewed, and animals were waited for awake.
24 hours after the rats were awake, the degree of damage in neural function was evaluated by the Zealonga method. […] The evaluation results were statistically analyzed and subjected to t-test.
After the rats were awake for 24 hours and assessed for their degree of damage in neural function by Zealonga method, they were anesthetized with urethane followed by immediate decapitation and removal of the brain. Brain tissues were kept in a −20° C. refrigerator for 2 hours, and coronal sections of about 2 mm were successively sliced from the prefrontal end for a total of 5 sections and then placed into a 2% TTC solution to incubate without light at 37° C. for 30 min. The color change in brain sections was observed: normal brain tissues were stained red by TTC, while ischemic brain tissues appeared in white. Photographs were taken by using a digital camera and processed with image statistics software, and the volume of infarction in brain tissues and the area of normal brain tissues in the coronal sections were calculated. The ratio of the cerebral infarction volume of each group was statistically calculated and subject to t-test.

The mark [3] stands for this setting: Table 1, control groups 6, PAK, 6 + PAK, dose not given.

Marks after values point to notes of the source that are not given here.

As to `CC(=O)Oc1ccccc1C(=O)O` [Aspirin, aspirin, reference compound], the “wet weight of thrombus” value in assay [1] (Table 3, Aspirin 9 mg/kg) was 46.95 ± 5.21^a mg; in assay [1] (Table 4, Aspirin 9 mg/kg), 45.62 ± 2.60 mg.
As to `CC1(C)N[C@H](C(=O)N[C@@H](CCCCN)C(=O)O)Cc2cc(O)c(O)cc21` [Compound 6, 3S-6,7-dihydroxy-1,1-dimethyl-1,2,3,4-tetrahydro-isoquinoline-3-acyl-Lys, reference compound], the “Weight reduction in thrombus” value in assay [2] (setting [3]) was 13.87 ± 3.07^a mg.
On to Pro-Ala-Lys [PAK, reference compound], for which the “Weight reduction in thrombus” value in assay [2] (setting [3]) is 14.17 ± 1.84^a mg. Besides, in the assay on stroke rats (PAK 5 μmol/kg), the Neural function scores was found to be 2.20 ± 1.60 and the “Percentage of infarction volume” value came to 18.36 ± 7.38%.
Consider urokinase [reference compound], for which the “Weight reduction in thrombus” value in assay [2] (Table 1, urokinase 20000 U/kg (1.68 mg/kg) i.v.) was 18.95 ± 2.73^a mg. Besides, the “Weight reduction in thrombus” value in assay [2] (Table 2, Urokinase 20000 U/kg i.v.) worked out at 25.61 ± 3.87 mg. In the assay with stroke rats (urokinase 20000 IU/kg), the Neural function scores is on record as 1.30 ± 0.95^a and the “Percentage of infarction volume” value is given as 4.60 ± 2.09%.
